Source: PMC11672801, “Synthesis of Temporin-SHa Retro Analogs with Lysine Addition/Substitution and Antibiotic Conjugation to Enhance Antibacterial, Antifungal, and Anticancer Activities” (Antibiotics, 2024)
Values after ≈ are worked out from the molar mass of the structure shown. Like-named read-outs stand apart in the source and are kept apart here. Where a SMILES comes first, the peptide text is derived from it. [ ]: non-standard residue; d: D form. The star is where a group is joined. Levofloxacinoyl = C[C@H]1COc2c(N3CCN(C)CC3)c(F)cc3c(=O)c(C(=O)*)cn1c23; βAla = NCCC(=O)O

Key:
[1] = system: Human breast cancer (MCF-7) cells; assay: cells; assay type: cell-based
Protocol: (§1) Human breast cancer (MCF-7) and human cervical cancer (HeLa) cells were obtained from the cell culture bank of PCMD in ICCBS, University of Karachi. These cells were maintained in Dulbecco’s Modified Eagle Medium (DMEM), supplemented with 10% fetal bovine serum, and incubated at 37 °C and 5% CO2. The antiproliferative activity of the samples was determined by a MTT assay. Briefly, the cells were washed with PBS and trypsinized. After determination of the cell number using Malassez cell counting, 100 µL of the cell suspension were seeded in a 96-well plate at the density of 6000 cells/well and incubated at 37 °C and 5% CO2. After 24 h, the cells were treated with increasing concentrations of analogs. The next day, media was removed and 200 µL of MTT dye (0.5 mg/mL) was added in each well and incubated for 3 h at 37 °C in 5% CO2 incubator. Then, the media was removed and 100 µL of DMSO was added to solubilize formazan crystals. After one minute of shaking, the absorbance was recorded at 540 nm in microplate reader (Multiskan GO, ThermoScientific, Waltham, MA, USA). Finally, the percent inhibition of proliferation was calculated using the following formula: % inhibition of proliferation=O.D of treated well−O.D of media control/O.D of untreated control−O.D of media control×100

[2] = system: human cervical cancer (HeLa) cells; assay: cells; assay type: cell-based; details: 24 h
Protocol: as §1

[3] = system: human red blood cells (RBC); assay: Hemolytic assay; assay type: cell-based
Protocol: For the hemolytic assay, fresh human blood (2 mL) was obtained from a healthy donor in EDTA tube while following the protocol of approval from the Independent Ethics Committee of ICCBS (approval number ICCBS/IEC-047-HB-2019/Protocol/1.0). The blood was centrifuged and upper supernatant plasma was removed. The cell pellets were washed with sterile PBS three times. The washed blood cells were then diluted 25 times to make 4% concentration of the initial blood cells. Red blood cells (500 µL) were treated with increasing concentrations of analogs, with triton X-100 at 0.1% being used as positive control giving 100% hemolysis. After 1 h of incubation at 37 °C, tubes were centrifuged at 800 rpm for 5 min to pellet down red blood cells. After centrifugation, 200 µL of supernatant were transferred into a 96 well plate and the absorbance was recorded at 576 nm using a microplate reader (MultiSkan Go, ThermoScientific). Then, the following formula was applied to calculate percent hemolysis: % Hemolysis=O.D of test sample−O.D of PBS control/O.D of Tritox×positive control−O.D of PBS control×100

[4] = system: cancer cells (MCF-7, HeLa); set-up: species or system human
Protocol: The selectivity of action of the analogs against micro-organisms or cancer cells was further evaluated through calculation of their selectivity indexes (SIs). SIs were determined using either the MIC on micro-organisms or IC50 on cancer cells compared to HC50 values, and they are reported in Table 6.

B. subtilis (ATCC 23857) = assay: Antibacterial broth microdilution MIC assay; assay type: cell-based, Bacillus subtilis; details: >99% inhibition of growth, MH broth, 20-22 h, 37 °C
Protocol: (§2) The antibacterial activity of peptide analogs was tested against different bacterial strains, i.e., Salmonella enterica subsp. enterica serotype Typhimurium or Salmonella typhi (ATCC 14028), Staphylococcus aureus (NCTC 13277), Bacillus subtilis (ATCC 23857), Escherichia coli (ATCC 25922), and Pseudomonas aeruginosa (ATCC 10145). These strains were obtained from the microbial bank of Dr. Panjwani Center for Molecular Medicine and Drug research (PCMD), International Center for Chemical and Biological Sciences (ICCBS), University of Karachi. Colonies of these bacterial strains were grown in respective agar media, then inoculated in Mueller Hinton (MH) broth (Oxoid, UK) and incubated at 37 °C overnight. The peptide solutions were first diluted 1 in 100 (from the stock solution at 20 mM) and then further two-fold dilution in MH broth in a sterile 96-well plate was performed, resulting in 100 µL of broth containing increasing concentrations of analogs. Bacteria in their exponential growth phase were diluted in MH broth, and 100 µL of this suspension was added in each well. […] Then, these plates were incubated at 37 °C for 20–22 h. MIC (Minimum Inhibitory Concentration) values were determined as the concentrations of peptides causing >99% inhibition of bacterial growth.

E. coli (ATCC 25922) = assay: Antibacterial broth microdilution MIC assay; assay type: cell-based, Escherichia coli; details: >99% inhibition of growth, MH broth, 20-22 h, 37 °C
Protocol: as §2

C. albicans (ATCC 36082) = assay: microbe, parasite or virus in culture
Protocol: Candida albicans (ATCC 36082) was cultured on Sabourad Dextrose Agar (SDA). A single colony was inoculated in Sabouraud Dextrose Broth (SDB) medium and grown overnight at 37 °C while shaking. The next day, the susceptibility of C. albicans was tested using a broth microdilution assay. Peptide analogs were diluted in SDB media by two-fold dilution, resulting in 100 µL of medium containing increasing concentrations of analogs. The overnight culture (turbidity at OD600 = 1) was 1000× diluted in SDB. Then 100 µL of this suspension was added to each well, resulting in a final 200 µL suspension containing 2–4 × 10^5 CFU/mL. The plate was incubated at 37 °C for 24 h. The next day, MIC (Minimum Inhibitory Concentration) values were determined as the concentrations of peptides causing > 99% inhibition of yeast growth.

[5] = system: P. aeruginosa (ATCC 10145); assay: Antibacterial broth microdilution MIC assay; assay type: cell-based, Pseudomonas aeruginosa; details: >99% inhibition of growth, MH broth, 20-22 h, 37 °C
Protocol: as §2

S. aureus (NCTC 13277) = details: >99% inhibition of growth, MH broth, 20-22 h, 37 °C
[6] = Circular dichroism secondary structure analysis (Bestsel) in 20 mM SDS; assay type: physicochemical; details: CD, 15 µM peptide in 20 mM SDS, 22 °C
Protocol: The far-ultraviolet circular dichroism (CD) spectra were recorded using a JASCO J-810 spectropolarimeter (Jasco, Tokyo, Japan), with measurements taken in a quartz cuvette with a 10 mm path length. The temperature was kept at 22 °C, and the instrument was calibrated with D-(+)-10-camphorsulfonic acid. Peptides were dissolved in 20 mM SDS to a final concentration of 15 µM. The CD spectra were collected over a wavelength range of 190 to 260 nm with a bandwidth of 2 nm. Each spectrum was recorded with ten consecutive scans at a rate of 50 nm/min, and the baseline was obtained under identical conditions. Secondary structures, i.e., the percentage of alpha-helix and other secondary structures, were quantified from CD data using Bestsel software (https://bestsel.elte.hu/index.php, accessed on 22 October 2024).

[7] = >99% inhibition of yeast growth, SDB, 24 h, 37 °C
[8] = >99% inhibition of growth, MH broth, 20-22 h, 37 °C
[9] = MTT, 24 h exposure, read-out: IC50 on Breast Cancer (MCF-7)

SMILES | MIC S. typhi (ATCC 14028) (S. typhi (ATCC 14028); ATCC 14028) [µM] | IC50 ([1]; 24 h) [µM] | IC50 [2] [µM] | HC50 on Human Red Blood Cells (RBCs) [3] [µM] | HC50 on Human Red Blood Cells (RBCs) ([3]; red cells of human, 1 h) [µM] | IC50 [4] [µM] | MIC (B. subtilis (ATCC 23857)) [µM] | MIC (E. coli (ATCC 25922)) [µM] | MIC C. albicans (ATCC 36082) (C. albicans (ATCC 36082); ATCC 36082, 24 h) [µM] | MIC [5] [µM] | MIC S. aureus (NCTC 13277) (S. aureus (NCTC 13277)) [µM] | MIC C. albicans (ATCC 36082) (C. albicans (ATCC 36082); [7]) [µM] | MIC S. typhi (ATCC 14028) (S. typhi (ATCC 14028); [8]) [µM] | IC50 [1, 9] [µM] | Antiparallel (%) [6] [%] | Helix (%) [6] [%] | Others (%) [6] [%] | Parallel (%) [6] [%] | Turn (%) [6] [%]
CC[C@H](C)[C@H](NC(=O)[C@@H](NC(=O)CNC(=O)[C@H](CCSC)NC(=O)[C@H](CC(C)C)NC(=O)CNC(=O)[C@H](CCCCN)NC(=O)[C@H](CC(C)C)NC(=O)[C@@H](N)Cc1ccccc1)C(C)C)C(=O)N[C@H](C)C(=O)N[C@@H](CO)C(=O)N[C@@H](CC(C)C)C(=O)N[C@@H](Cc1ccccc1)C(=O)N[C@@H](CCCCNC(=O)c1cn2c3c(c(N4CCN(C)CC4)c(F)cc3c1=O)OC[C@@H]2C)C(N)=O [RLFP-1 (4), H-Phe^1-Leu^2-Lys^3-Gly^4-Leu^5-Met^6-Gly^7-Val^8-Ile^9-D-Ala^10-Ser^11-Leu^12-Phe^13-Lys^14(LF)-NH2] (H-FLKGLMGVI[dA]SLFK(Levofloxacinoyl)-NH2) | 25 (≈ 46.7 µg/mL) | > 100 | > 100 | 98.6 | 98.9 | > 100 | 50 (≈ 93.3 µg/mL) | >200 | >250 | >200 | 50 (≈ 93.3 µg/mL) |  |  |  |  |  |  |  | 
CC[C@H](C)[C@H](NC(=O)[C@@H](NC(=O)CNC(=O)[C@H](CCSC)NC(=O)[C@H](CC(C)C)NC(=O)CNC(=O)[C@H](CCCCN)NC(=O)[C@H](CC(C)C)NC(=O)[C@H](Cc1ccccc1)NC(=O)CCNC(=O)c1cn2c3c(c(N4CCN(C)CC4)c(F)cc3c1=O)OC[C@@H]2C)C(C)C)C(=O)N[C@H](C)C(=O)N[C@@H](CO)C(=O)N[C@@H](CC(C)C)C(=O)N[C@@H](Cc1ccccc1)C(=O)N[C@@H](CCCCN)C(N)=O [RLFP-3 (6), LF-β-Ala-Phe^1-Leu^2-Lys^3-Gly^4-Leu^5-Met^6-Gly^7-Val^8-Ile^9-D-Ala^10-Ser^11-Leu^12-Phe^13-Lys^14-NH2] ({Levofloxacinoyl-βAla}-FLKGLMGVI[dA]SLFK-NH2) | 3.12 (≈ 6.04 µg/mL) | 13.3 | 12.1 |  | 6.6 |  | 1.56 (≈ 3.02 µg/mL) | 25 (≈ 48.4 µg/mL) |  | 12.5 (≈ 24.2 µg/mL) | 12.5 (≈ 24.2 µg/mL) | 3.12 (≈ 6.04 µg/mL) |  |  |  |  |  |  | 
CC[C@H](C)[C@H](NC(=O)[C@@H](NC(=O)CNC(=O)[C@H](CCSC)NC(=O)[C@H](CC(C)C)NC(=O)[C@H](CCCCN)NC(=O)[C@H](CCCCN)NC(=O)[C@H](CC(C)C)NC(=O)[C@H](Cc1ccccc1)NC(=O)CCNC(=O)c1cn2c3c(c(N4CCN(C)CC4)c(F)cc3c1=O)OC[C@@H]2C)C(C)C)C(=O)N[C@H](C)C(=O)N[C@@H](CO)C(=O)N[C@@H](CC(C)C)C(=O)N[C@@H](Cc1ccccc1)C(N)=O [RLFP-4 (8), LF-β-Ala-Phe^1-Leu^2-Lys^3-Lys^4-Leu^5-Met^6-Gly^7-Val^8-Ile^9-D-Ala^10-Ser^11-Leu^12-Phe^13-NH2] ({Levofloxacinoyl-βAla}-FLKKLMGVI[dA]SLF-NH2) | 50 (≈ 94 µg/mL) | 23.8 | 15.5 |  | 4.5 |  | 1.56 (≈ 2.93 µg/mL) | 25 (≈ 47 µg/mL) | >200 | 12.5 (≈ 23.5 µg/mL) | 6.25 (≈ 11.8 µg/mL) |  |  |  |  |  |  |  | 
CC[C@H](C)[C@H](NC(=O)[C@@H](NC(=O)CNC(=O)[C@H](CCSC)NC(=O)[C@H](CC(C)C)NC(=O)CNC(=O)[C@H](CCCCN)NC(=O)[C@H](CC(C)C)NC(=O)[C@@H](N)Cc1ccccc1)C(C)C)C(=O)N[C@H](C)C(=O)N[C@@H](CO)C(=O)N[C@@H](CC(C)C)C(=O)N[C@@H](Cc1ccccc1)C(N)=O [RNST-2 (2), H-Phe^1-Leu^2-Lys^3-Gly^4-Leu^5-Met^6-Gly^7-Val^8-Ile^9-D-Ala^10-Ser^11-Leu^12-Phe^13-NH2] (H-FLKGLMGVI[dA]SLF-NH2) |  |  | 60 |  | 13.8 |  | 1.56 (≈ 2.18 µg/mL) | 50 (≈ 69.7 µg/mL) |  | 200 (≈ 279 µg/mL) | 3.12 (≈ 4.35 µg/mL) | 15.6 (≈ 21.8 µg/mL) | 50 (≈ 69.7 µg/mL) | 53 | 17.9 | 62 | 0.00 | 20.1 | 0.00
CC[C@H](C)[C@H](NC(=O)[C@@H](NC(=O)CNC(=O)[C@H](CCSC)NC(=O)[C@H](CC(C)C)NC(=O)[C@H](CCCCN)NC(=O)[C@H](CCCCN)NC(=O)[C@H](CC(C)C)NC(=O)[C@@H](N)Cc1ccccc1)C(C)C)C(=O)N[C@H](C)C(=O)N[C@@H](CO)C(=O)N[C@@H](CC(C)C)C(=O)N[C@@H](Cc1ccccc1)C(N)=O [RSP-4 (7), H-Phe^1-Leu^2-Lys^3-Lys^4-Leu^5-Met^6-Gly^7-Val^8-Ile^9-D-Ala^10-Ser^11-Leu^12-Phe^13-NH2] (H-FLKKLMGVI[dA]SLF-NH2) |  |  | 56.9 | > 100 |  |  | 12.5 (≈ 18.3 µg/mL) | 50 (≈ 73.3 µg/mL) | 100 (≈ 147 µg/mL) | 200 (≈ 293 µg/mL) | 50 (≈ 73.3 µg/mL) |  | 100 (≈ 147 µg/mL) | 39.9 | 22.1 | 56.8 | 13.6 | 0.00 | 7.6
